The molecules below were run on HIV-1 (strain IIIB) (assay: Antiviral activity assay in MT4 cells (propidium iodide based)). Conditions: Human immunodeficiency virus 1, IIIB; wild type HIV-1 virus, MT4 cells; read-out: Wildtype virus - IC50.
Type: cell-based
Description: Antiviral Activity Assay in MT4 Cells
Aliquots of the test compounds were serially diluted in medium (RPMI 1640, 10% fetal calf serum (FCS), and gentamycin) in 96-well plates (Costar 3598) using a Cetus Pro/Pette. Exponentially growing MT4 cells were harvested and centrifuged at 1000 rpm for 10 min in a Jouan centrifuge (model CR 4 12). Cell pellets were resuspended in fresh medium (RPMI 1640, 20% FCS, 20% IL-2, and gentamycin) to a density of 5×10^5 cells/ml. Cell aliquots were infected by the addition of HIV-1 (strain IIIB) diluted to give a viral multiplicity of infection of 100×TCID50. A similar cell aliquot was diluted with medium to provide a mock-infected control. Cell infection was allowed to proceed for 1 hr at 37° in a tissue culture incubator with humidified 5% CO2 atmosphere. After the 1 hr incubation the virus/cell suspensions were diluted 6-fold with fresh medium, and 125 μl of the cell suspension was added to each well of the plate containing pre-diluted compound. Plates were then placed in a tissue culture incubator with humidified 5% CO2 for 5 days. At the end of the incubation period, 27 μl of 5% Nonidet-40 was added to each well of the incubation plate. After thorough mixing with a Costar multitip pipetter, 60 μl of the mixture was transferred to filter-bottomed 96-well plates. The plates were analyzed in an automated assay instrument (Screen Machine, Idexx Laboratories). The assay makes use of a propidium iodide dye to estimate the DNA content of each well.
The anti-viral potency in MT-4 cells of the compounds set forth in Tables 1 and 2 was determined using the above technique.

| Structure (SMILES) | IC50 [µM] |
| --- | --- |
| CC(C)CN(C[C@@H](O)[C@H](Cc1ccc(OCCCCN)cc1)NC(=O)O[C@H]1CO[C@H]2OCC[C@H]21)S(=O)(=O)c1ccc2c(c1)OCO2 [Compound 224, (3R,3aS,6aR)-hexahydrofuro[2,3-b]furan-3-yl (1S,2R)-1-[4-(4-aminobutoxy)benzyl]-3-[(1,3-benzodioxol-5-ylsulfonyl) (isobutyl)amino]-2-hydroxypropylcarbamate] | 0.01 to 0.1 |
| CC(C)CN(C[C@@H](O)[C@H](Cc1ccc(OCCCC(N)=O)cc1)NC(=O)O[C@H]1CO[C@H]2OCC[C@H]21)S(=O)(=O)c1ccc2c(c1)OCO2 [Compound 285, (3R,3aS,6aR)-hexahydrofuro[2,3-b]furan-3-yl (1S,2R)-1-[4-(4-amino-4-oxobutoxy)benzyl]-3-[(1,3-benzodioxol-5-ylsulfonyl)(isobutyl)amino]-2-hydroxypropylcarbamate] | 0.01 to 0.1 |
| CC(C)(CCCC#N)CN(C[C@@H](O)[C@H](Cc1ccc(OCc2ccccc2)cc1)NC(=O)OC1COCOC1)S(=O)(=O)c1ccc2c(c1)OCO2 [Compound 306, 1,3-Dioxan-5-yl (1S,2R)-3-[(1,3-benzodioxol-5-ylsulfonyl)(5-cyano-2,2-dimethylpentyl)amino]-1-[4 (benzyloxy)benzyl]-2-hydroxypropylcarbamate] | 0.01 to 0.1 |
| CC(C)(CCCC#N)CN(C[C@@H](O)[C@H](Cc1ccc(OCc2ccccc2)cc1)NC(=O)O[C@H]1CCOC1)S(=O)(=O)c1ccc2c(c1)OCO2 [Compound 307, (3S)-Tetrahydro-3-furanyl (1S,2R)-3-[(1,3-benzodioxol-5-ylsulfonyl)(5-cyano-2,2-dimethylpentyl)amino]-1-[4-(benzyloxy)benzyl]-2-hydroxypropylcarbamate] | 0.01 to 0.1 |
| Cc1cccc(C)c1OCC(=O)N[C@@H](Cc1ccc(OCc2ccccc2)cc1)[C@H](O)CN(CC(C)C)S(=O)(=O)c1ccc2c(c1)OCO2 [Compound 325, N-{(1S,2R)-3-[(1,3-Benzodioxol-5-ylsulfonyl)(isobutyl)amino]-1-[4-(benzyloxy)benzyl]-2-hydroxypropyl}-2-(2,6-dimethylphenoxy)acetamide] | 0.01 to 0.1 |
| CCOC(CCOC(=O)N[C@@H](Cc1ccc(OCc2ccccc2)cc1)[C@H](O)CN(CC(C)C)S(=O)(=O)c1ccc2c(c1)OCO2)OCC [Compound 328, 3,3-Diethoxypropyl (1S,2R)-3-[(1,3-benzodioxol-5-ylsulfonyl)(isobutyl)amino]-1-[4-(benzyloxy)benzyl]-2-hydroxypropylcarbamate] | 0.01 to 0.1 |
| CCC(CC)ON(C[C@@H](O)[C@H](Cc1ccc(OCc2ccccc2)cc1)NC(=O)OC1COCOC1)S(=O)(=O)c1ccc2c(c1)OCO2 [Compound 330, 1,3-Dioxan-5-yl (1S,2R)-3-[(1,3-benzodioxol-5-ylsulfonyl) (1-ethylpropoxy)amino]-1-[4-(benzyloxy)benzyl]-2-hydroxypropylcarbamate] | 0.01 to 0.1 |
| CC(C)CN(C[C@@H](O)[C@H](Cc1ccc(OCCCC(=O)O)cc1)NC(=O)O[C@H]1CO[C@H]2OCC[C@H]21)S(=O)(=O)c1ccc2c(c1)OCO2 [Compound 339, 4-(4-{(2S,3R)-2-({[(3R,3aS,6aR)-hexahydrofuro[2,3-b]furan-3-yloxy]carbonyl}amino)-4-[(1,3-benzodioxol-5-ylsulfonyl)(isobutyl)amino]-3-hydroxybutyl}phenoxy) butanoic acid] | 0.01 to 0.1 |
| CC(C)CN(C[C@@H](O)[C@H](Cc1ccc(OCc2ccccc2)cc1)NC(=O)O[C@H]1CO[C@H]2OCC[C@H]21)S(=O)(=O)c1ccc2c(c1)OC(F)(F)O2 [Compound 340, (3R,3aS,6aR)-hexahydrofuro[2,3-b]furan-3-yl (1S,2R)-1-[4-(benzyloxy)benzyl]-3-[[(2,2-difluoro-1,3-benzodioxol-5-yl)sulfonyl](isobutyl)amino]-2-hydroxypropylcarbamate] | 0.01 to 0.1 |
| Cc1cc(S(=O)(=O)N(CC(C)C)C[C@@H](O)[C@H](Cc2ccc(OCc3cccc(C#N)c3)cc2)NC(=O)O[C@H]2CO[C@H]3OCC[C@H]32)ccc1O [Compound 346] | 0.01 to 0.1 |
| Cc1cccc(C)c1OCC(=O)N[C@@H](Cc1ccc(OS(=O)(=O)c2ccc3c(c2)OCO3)cc1)[C@H](O)CN(CC(C)C)S(=O)(=O)c1ccc2c(c1)OCO2 [Compound 350, 4-((2S,3R)-4-[(1,3-benzodioxol-5-ylsulfonyl)(isobutyl)amino]-2-{[(2,6-dimethylphenoxy)acetyl]amino}-3-hydroxybutyl)phenyl 1,3-benzodioxole-5-sulfonate] | 0.01 to 0.1 |
| CC(C)CN(C[C@@H](O)[C@H](Cc1ccc(OCCN)cc1)NC(=O)O[C@H]1CO[C@H]2OCC[C@H]21)S(=O)(=O)c1ccc2c(c1)OCO2 [Compound 354, (3R,3aS,6aR)hexahydrofuro[2,3-b]furan-3-yl (1S,2R)-3-[(1,3-benzodioxol-5-ylsulfonyl)(isobutyl)amino]-2-hydroxy-1-[4-(2-aminoethoxy)benzyl]propylcarbamate] | 0.01 to 0.1 |

Same assay, conditions: wild type HIV-1 virus, MT4 cells; read-out: Wildtype virus - IC50

| Structure (SMILES) | IC50 [µM] |
| --- | --- |
| CC(C)CN(C[C@@H](O)[C@H](Cc1ccc(OCc2ccsc2)cc1)NC(=O)O[C@H]1CO[C@H]2OCC[C@H]21)S(=O)(=O)c1ccc2c(c1)OCO2 [Compound 207] | 0.001 to 0.01 |
| CC(C)CN(C[C@@H](O)[C@H](Cc1ccc(OCCc2ccsc2)cc1)NC(=O)O[C@H]1CO[C@H]2OCC[C@H]21)S(=O)(=O)c1ccc2c(c1)OCO2 [Compound 208] | 0.01 to 0.1 |
| CC(C)CN(C[C@@H](O)[C@H](Cc1ccc(OCCc2cccs2)cc1)NC(=O)O[C@H]1CO[C@H]2OCC[C@H]21)S(=O)(=O)c1ccc2c(c1)OCO2 [Compound 209] | 0.001 to 0.01 |
| CC(C)CN(C[C@@H](O)[C@H](Cc1ccc(OCCc2ccncc2)cc1)NC(=O)O[C@H]1CO[C@H]2OCC[C@H]21)S(=O)(=O)c1ccc2c(c1)OCO2 [Compound 211] | 0.001 to 0.01 |
| Cc1ncsc1CCOc1ccc(C[C@H](NC(=O)O[C@H]2CO[C@H]3OCC[C@H]32)[C@H](O)CN(CC(C)C)S(=O)(=O)c2ccc3c(c2)OCO3)cc1 [Compound 213] | 0.001 to 0.01 |
| CC(C)CN(C[C@@H](O)[C@H](Cc1ccc(OCCCc2cccnc2)cc1)NC(=O)O[C@H]1CO[C@H]2OCC[C@H]21)S(=O)(=O)c1ccc2c(c1)OCO2 [Compound 214] | 0.001 to 0.01 |
| CC(C)CN(C[C@@H](O)[C@H](Cc1ccc(OCCc2ccc(C#N)cc2)cc1)NC(=O)O[C@H]1CO[C@H]2OCC[C@H]21)S(=O)(=O)c1ccc2c(c1)OCO2 [Compound 215] | 0.001 to 0.01 |
| CC(C)CN(C[C@@H](O)[C@H](Cc1ccc(OCCCC(F)(F)F)cc1)NC(=O)O[C@H]1CO[C@H]2OCC[C@H]21)S(=O)(=O)c1ccc2c(c1)OCO2 [Compound 216] | 0.001 to 0.01 |
| CC(C)CN(C[C@@H](O)[C@H](Cc1ccc(OCCC(F)(F)F)cc1)NC(=O)O[C@H]1CO[C@H]2OCC[C@H]21)S(=O)(=O)c1ccc2c(c1)OCO2 [Compound 217] | 0.001 to 0.01 |
| CC(C)CC(=O)NCCCOc1ccc(C[C@H](NC(=O)O[C@H]2CO[C@H]3OCC[C@H]32)[C@H](O)CN(CC(C)C)S(=O)(=O)c2ccc3c(c2)OCO3)cc1 [Compound 231] | 0.001 to 0.01 |
| CC(C)CN(C[C@@H](O)[C@H](Cc1ccc(OCCCNC(=O)C(C)(C)C)cc1)NC(=O)O[C@H]1CO[C@H]2OCC[C@H]21)S(=O)(=O)c1ccc2c(c1)OCO2 [Compound 232] | 0.001 to 0.01 |
| CC(C)CN(C[C@@H](O)[C@H](Cc1ccc(OCCNC(=O)c2ccco2)cc1)NC(=O)O[C@H]1CO[C@H]2OCC[C@H]21)S(=O)(=O)c1ccc2c(c1)OCO2 [Compound 234] | 0.001 to 0.01 |
| CCOC(=O)NCCOc1ccc(C[C@H](NC(=O)O[C@H]2CO[C@H]3OCC[C@H]32)[C@H](O)CN(CC(C)C)S(=O)(=O)c2ccc3c(c2)OCO3)cc1 [Compound 245] | 0.001 to 0.01 |
| CCOC(=O)NCCCOc1ccc(C[C@H](NC(=O)O[C@H]2CO[C@H]3OCC[C@H]32)[C@H](O)CN(CC(C)C)S(=O)(=O)c2ccc3c(c2)OCO3)cc1 [Compound 246] | 0.001 to 0.01 |
| CCOC(=O)NCCCCOc1ccc(C[C@H](NC(=O)O[C@H]2CO[C@H]3OCC[C@H]32)[C@H](O)CN(CC(C)C)S(=O)(=O)c2ccc3c(c2)OCO3)cc1 [Compound 247] | 0.001 to 0.01 |
| CC(C)CN(C[C@@H](O)[C@H](Cc1ccc(OCCNC(=O)OC(C)C)cc1)NC(=O)O[C@H]1CO[C@H]2OCC[C@H]21)S(=O)(=O)c1ccc2c(c1)OCO2 [Compound 248] | 0.001 to 0.01 |
| CC(C)CN(C[C@@H](O)[C@H](Cc1ccc(OCCCNC(=O)OC(C)C)cc1)NC(=O)O[C@H]1CO[C@H]2OCC[C@H]21)S(=O)(=O)c1ccc2c(c1)OCO2 [Compound 249] | 0.001 to 0.01 |
| CC(C)CN(C[C@@H](O)[C@H](Cc1ccc(OCCCCNC(=O)OC(C)C)cc1)NC(=O)O[C@H]1CO[C@H]2OCC[C@H]21)S(=O)(=O)c1ccc2c(c1)OCO2 [Compound 250] | 0.001 to 0.01 |
| CC(C)CN(C[C@@H](O)[C@H](Cc1ccc(OCCCCNS(C)(=O)=O)cc1)NC(=O)O[C@H]1CO[C@H]2OCC[C@H]21)S(=O)(=O)c1ccc2c(c1)OCO2 [Compound 252] | 0.001 to 0.01 |
| CC(C)CN(C[C@@H](O)[C@H](Cc1ccc(OCCCNC(=O)N(C)C)cc1)NC(=O)O[C@H]1CO[C@H]2OCC[C@H]21)S(=O)(=O)c1ccc2c(c1)OCO2 [Compound 254] | 0.001 to 0.01 |

— US8455497B2, “Inhibitors of aspartyl protease” (Vertex Pharmaceuticals Incorporated, priority 1999, dated 2013)
